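The compound was tested at five concentrations on cells cultured in 96-well plates, with a 48-hour exposure period. Abbreviation: GI50, concentration required for 50% inhibition of growth.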 The source made the active and inactive calls. Cut-off read from the data, not from the text of the source: active = GI50 up to about 1.1 µM and inactive = higher.
What was measured:
Experiment in all cases: DTP human tumour cell line panel, 48 h
[1] = tested on: KM-20L2
[2] = tested on: SNB-78
[3] = tested on: DMS-114
[4] = tested on: LXFL 529
[5] = tested on: M19-MEL
[6] = tested on: DMS-273
[7] = tested on: HOP-18
[8] = tested on: XF498
[9] = tested on: RXF 631

SMILES | GI50 [1] | GI50 [2] | GI50 [3] | GI50 [4] | GI50 [5] | GI50 [6] | GI50 [7] | GI50 [8] | GI50 [9]
c1ccc2c(C3NCCc4nc[nH]c43)cccc2c1 (centres undefined) | > 100 µM (inactive) | > 100 µM (inactive) | > 100 µM (inactive) | > 100 µM (inactive) | > 100 µM (inactive) | > 100 µM (inactive) | > 100 µM (inactive) |  | 
CC(C)CCC[C@@H](C)C1CCC2[C@@H]3CC=C4C[C@@H](OC(=O)CCC(=O)NCC[N+](C)(C)CCCS(=O)(=O)[O-])CC[C@]4(C)C3CC[C@@]21C (some centres undefined) | 81.3 µM (inactive) | 24.9 µM (inactive) | 20.6 µM (inactive) | 27.9 µM (inactive) | 18.5 µM (inactive) | 14.7 µM (inactive) | 30.5 µM (inactive) |  | 
CC(=O)OCCOCNC(=S)N/N=C(\C)c1cnccn1 | 13.2 µM (inactive) | > 100 µM (inactive) | 16.8 µM (inactive) | 22.9 µM (inactive) | 15.9 µM (inactive) | 24.5 µM (inactive) | 25.4 µM (inactive) | > 100 µM (inactive) | 
CCCCSC1CCSc2c1ccc1ccccc21 (centres undefined) | 53.8 µM (inactive) | > 100 µM (inactive) | > 100 µM (inactive) |  | > 100 µM (inactive) |  | > 100 µM (inactive) | 0.119 µM (active) | 
N#C/C(=C\c1cc(O)cc(O)c1)C(N)=O | > 100 µM (inactive) | > 100 µM (inactive) | > 100 µM (inactive) | > 100 µM (inactive) | > 100 µM (inactive) | > 100 µM (inactive) |  | > 100 µM (inactive) | > 100 µM (inactive)
CC(=O)OC1CC2Oc3ccc(C)cc3C(C)(O2)C1=O (centres undefined) |  |  | > 100 µM (inactive) |  | > 100 µM (inactive) | > 100 µM (inactive) | > 100 µM (inactive) | 76 µM (inactive) | 
CCOC(=O)C1S/C(=N\c2cccc(Cl)c2C)N=C1C (centres undefined) | 17.3 µM (inactive) | 33 µM (inactive) | 30.4 µM (inactive) | > 10 µM (inactive) | 26.9 µM (inactive) |  | 28.7 µM (inactive) | 19.7 µM (inactive) | 
CC(O)CCC(=O)c1ccoc1 (centres undefined) | > 9160 µM (inactive) | 5500 µM (inactive) | 2610 µM (inactive) | > 1000 µM (inactive) | 5480 µM (inactive) | 5450 µM (inactive) | 5150 µM (inactive) |  | 
CC12CCC(=O)N1c1cc([N+](=O)[O-])ccc1N2 (centres undefined) | > 100 µM (inactive) | > 100 µM (inactive) | > 100 µM (inactive) | > 100 µM (inactive) | > 100 µM (inactive) | > 100 µM (inactive) | > 100 µM (inactive) | > 100 µM (inactive) | > 100 µM (inactive)
CCCCN(CCCC)C(=O)C(=O)CC(=O)c1ccc(Br)cc1 | > 100 µM (inactive) | > 100 µM (inactive) | > 100 µM (inactive) | > 100 µM (inactive) | > 100 µM (inactive) | > 100 µM (inactive) | > 100 µM (inactive) | > 100 µM (inactive) | 
O=C(NCCCl)SCCO | > 100 µM (inactive) | > 100 µM (inactive) | > 100 µM (inactive) | > 100 µM (inactive) | > 100 µM (inactive) | > 100 µM (inactive) |  |  | > 100 µM (inactive)
NC(=O)C(N)=O | > 100 µM (inactive) | > 100 µM (inactive) | > 100 µM (inactive) | > 100 µM (inactive) | > 100 µM (inactive) | > 100 µM (inactive) | > 100 µM (inactive) | > 100 µM (inactive) | 
CCC1=C(C)/C(=C/c2[nH]c(C(Br)Br)c(CC)c2C)N=C1C(Br)Br | 41 µM (inactive) | 33.4 µM (inactive) | 19 µM (inactive) | 31.9 µM (inactive) | 20.9 µM (inactive) |  | 84.9 µM (inactive) |  | 
CCc1nnc(S)n1/N=C/c1ccc(-c2ccc([N+](=O)[O-])cc2)o1 | > 100 µM (inactive) | > 100 µM (inactive) |  | > 100 µM (inactive) | > 100 µM (inactive) | > 100 µM (inactive) |  | > 100 µM (inactive) | 
